“And” between values parts separate entries of the source, which are not always exact repeats. Equal values may be shown once. “Also recorded” adds a separate entry of the source. Where a name gives a salt, the structure may show the parent alone. Read-outs that look alike come from different tables or passages of the source.
Columns and labels:
carrageenin oedema = carrageenin oedema test in the rat, oral administration; type: in vivo; conditions: for % change of increase of original volume, 1 h / % change of increase of original volume, 2 h / % change of increase of original volume, 3 h / % change of increase of original volume, 4 h / % change of increase of original volume, 5 h: vs controls
Procedure: (§1) The anti-inflammatory and analgesic activity of compound Ib was tested after oral administration in the carrageenin oedema test in the rat (C. A. Winter et al. Proc. Soc. Exp. Biol. Med., 111, 544, 1962), in the phenylquinone writhing test (I. C. Hendershot and J. J. Forsaith, Pharmacol. Exp. Ther., 125, 237, 1959) and in the hot plate test on the mouse (N. B. Eddy and D. J. Leimbach, J. Pharmacol. Exp. Ther., 107, 385, 1953). The activity of the compound was compared with equimolecular doses of sodium meclofenamate. A comparison was also made between the acute toxicity of the two substances by measuring the oral LD 50 on the rat.
The substances under test, dissolved in distilled water, were administered by a stomach probe 1 hour before subplantar injection of carrageenin (1% in sterile 0.9% NaCl aqueous solution). […]

arachidonic acid oedema = arachidonic acid oedema in the rat, oral administration; type: in vivo; conditions: for change of Increase of Original Volume (in parentheses), 60 min: vs controls
Procedure: (1) Arachidonic acid oedema in the rat (M. J. Di Martino, G. C. Campbell Jnr., C. E. Wolff and N. Hanna, Agents and Actions; 21, 303, 1987)
Compound Ib was administered by gastric probe one hour before subplantar injection of 0.1 ml of 0.5% arachidonic acid in carbonate buffer (pH 8-8.2).
The volume of the paws of the treated animals and of the control was measured with a plethysmometer immediately and 60 minutes after the irritating agent (peak time of oedema).

pH of aqueous solution = type: physicochemical
[1] = test system: writhing induced by phenylquinone; experiment: phenylquinone writhing test, oral administration; type: in vivo, mouse
Procedure: as §1
The substances under test were administered by a stomach probe 1 hour before intraperitoneal injection of phenylquinone (2 mg/kg). The abdominal contractions of the treated animals and the controls were counted during every 10 minutes for half an hour.

[2] = test system: reaction time to heat (hot plate); type: in vivo, mouse; conditions: oral; for Percentages of mice protected at 30 minutes / Percentages of mice protected at 60 minutes: reaction time 15 seconds or more, 55° C.
Procedure: as §1
The substances under test were administered by a stomach probe to preselected mice. The controls and the treated animals were placed on the hot plate (55° C.) one at a time immediately after treatment. The reaction time to heat, was measured 30 and 60 minutes after treatment. Animals were considered protected when the reaction time was 15 seconds or more.

[3] = test system: 6-day old air pouch irritated by carrageenan; experiment: irritation of 6-day old air pouch by carrageenan in the rat; type: in vivo
Procedure: (2) Irritation of 6-day old air pouch by carrageenan in the rat (A. D. Sedgwick, Y. M. Sin, A. R. Mackay, A. Al-Duaij and D. A. Willoughby; J. Pharm. Pharmacol.; 36, 171, 1984).
The formation of a dorsal pouch was induced in the rat by dorsal subcutaneous administration of 20 ml of air. 10 ml of air were then injected every day for three consecutive days in order to keep the cavity permeable. Six days after the first injection of air, the dorsal pouch in the animals was treated with 1 ml of 1% carrageenan in physiological solution.
Compound Ib was administered by gastric probe, 24 hours and 1 hour before administration of the irritating agent.
The animals, dividedinto groups of five, were killed 4 hours and 24 hours after the carrageenan. The volume of the exudate and the total number of leucocytes were measured.

rat = experiment: acute toxicity on the rat, oral LD50; type: in vivo
Procedure: as §1
(§2) The two LD 50 values were calculated by the probit method.

[4] = acute toxicity on the rat, oral LD50; type: in vivo; conditions: rat, in vivo, po
Procedure: as §1, §2

[5] = rat, oral, dose corresponding to 10 mg/kg meclofenamic acid (Ib 12.7 mg/kg; sodium meclofenamate 11.0 mg/kg)
[6] = rat, oral, dose corresponding to 10 mg/kg meclofenamic acid
[7] = rat, oral, dose corresponding to 20 mg/kg meclofenamic acid (Ib 25,4 mg/kg; sodium meclofenamate 22,0 mg/kg), **P < 0.01 vs controls
[8] = rat, oral, dose corresponding to 20 mg/kg meclofenamic acid
[9] = Ib 12.7 mg/kg, sodium meclofenamate 11 mg/kg
[10] = oral, Ib 12.7 mg/kg, sodium meclofenamate 11.0 mg/kg
[11] = oral, Ib 25.4 mg/kg, sodium meclofenamate 22.0 mg/kg
[12] = oral, dose corresponding to 10 mg/kg meclofenamic acid (Ib 12.7 mg/kg; sodium meclofenamate 11.0 mg/kg)
[13] = oral, dose corresponding to 10 mg/kg meclofenamic acid (Ib 12.7 mg/kg; sodium meclofenamate 11.0 mg/kg), **P < 0.01 vs controls
[14] = oral, dose corresponding to 20 mg/kg meclofenamic acid (Ib 25.4 mg/kg; sodium meclofenamate 22.0 mg/kg), **P < 0.01 vs controls
[15] = Ib 25.4 mg/kg, sodium meclofenamate 22 mg/kg
[16] = os, Ib 31.75 mg/kg × 2 (**P < 0.01), sodium meclofenamate 27.5 mg/kg × 2 (*P < 0.05 vs controls), 24 h
[17] = os, Ib 31.75 mg/kg × 2, sodium meclofenamate 27.5 mg/kg × 2, 4 h, vs controls
[18] = os, Ib 31.75 mg/kg × 2, sodium meclofenamate 27.5 mg/kg × 2, 24 h, vs controls

Cc1ccc(Cl)c(Nc2ccccc2C(=O)OCC(=O)O)c1Cl [Ib, sodium salt (Ib) of 2-[(2,6-dichloro-3-methylphenyl)-amino]benzoyloxyacetic acid]
significance of Ib vs. sodium meclofenamate (carrageenin oedema; Duncan test): Not significant
Increase of original volume (m ± s.e.), 1 h (carrageenin oedema; [5]): 0.44 ± 0.3 mL
Increase of original volume (m ± s.e.), 2 h (carrageenin oedema; [5]): 0.81 ± 0.07 mL
Increase of original volume (m ± s.e.), 3 h (carrageenin oedema; [5]): 1.23 ± 0.06 mL
Increase of original volume (m ± s.e.), 4 h (carrageenin oedema; [5]): 1.39 ± 0.06 mL
Increase of original volume (m ± s.e.), 5 h (carrageenin oedema; [5]): 1.10 ± 0.08 mL
% change of increase of original volume, 1 h (carrageenin oedema; [6]): -6%
% change of increase of original volume, 2 h (carrageenin oedema; [6]): -15%
% change of increase of original volume, 3 h (carrageenin oedema; [6]): -20%
% change of increase of original volume, 4 h (carrageenin oedema; [6]): -8%
% change of increase of original volume, 5 h (carrageenin oedema; [6]): -10%
Increase of original volume (m ± s.e.), 1 h (carrageenin oedema; rat, oral, dose corresponding to 20 mg/kg meclofenamic acid (Ib 25,4 mg/kg; sodium meclofenamate 22,0 mg/kg)): 0.35 ± 0.05 mL
Increase of original volume (m ± s.e.), 2 h (carrageenin oedema; rat, oral, dose corresponding to 20 mg/kg meclofenamic acid (Ib 25,4 mg/kg; sodium meclofenamate 22,0 mg/kg), *P < 0.05): 0.62 ± 0.07 mL
Increase of original volume (m ± s.e.), 3 h (carrageenin oedema; [7]): 0.78 ± 0.07 mL
Increase of original volume (m ± s.e.), 4 h (carrageenin oedema; [7]): 1.11 ± 0.08 mL
Increase of original volume (m ± s.e.), 5 h (carrageenin oedema; [7]): 1.22 ± 0.08 mL
% change of increase of original volume, 1 h (carrageenin oedema; [8]): -22%
% change of increase of original volume, 2 h (carrageenin oedema; [8]): -35%
% change of increase of original volume, 3 h (carrageenin oedema; [8]): -42%
% change of increase of original volume, 4 h (carrageenin oedema; [8]): -31%
% change of increase of original volume, 5 h (carrageenin oedema; [8]): -26%
anti-inflammatory activity compared with reference (in words) (carrageenin oedema; rat, oral, vs sodium meclofenamate): had the anti-inflammatory and analgesic properties of the reference compound; also recorded: behaved in similar manner
minimal effective dose (carrageenin oedema; rat, oral, read-out: dose at which antagonism of the oedema is statistically significant): 68 µmol/kg
change of Increase of Original Volume (in parentheses), 60 min (arachidonic acid oedema; [9]): -15
change of Increase of Original Volume (in parentheses), 60 min (arachidonic acid oedema; Ib 38.1 mg/kg, sodium meclofenamate 33 mg/kg): -40
Increase of Original Volume (m ± s.e.), 60 min (arachidonic acid oedema; dose corresponding to 10 mg/kg meclofenamic acid (Ib 12.7 mg/kg; sodium meclofenamate 11 mg/kg)): 0.53 ± 0.04
Increase of Original Volume (m ± s.e.), 60 min (arachidonic acid oedema; dose corresponding to 30 mg/kg meclofenamic acid (Ib 38.1 mg/kg, **P < 0.01; sodium meclofenamate 33 mg/kg, *P < 0.05 vs controls)): 0.37 ± 0.05
activity relative to sodium meclofenamate (arachidonic acid oedema; rat): about twice as active as sodium meclofenamate
statistically significant dose as fraction of the LD50 (arachidonic acid oedema; rat, oedema reduced in statistically significant manner): 1/7
pH in 1% aqueous solution (pH of aqueous solution; 1% aqueous solution): 6.9 and 7.1
pH of aqueous solution (in words) (pH of aqueous solution; 1% aqueous solution (Ib)): practically neutral pH
significance of Ib vs. sodium meclofenamate ([1]; Duncan test): Not significant
% Protection, 0-10 minutes [1, 10]: 41%
% Protection, 10-20 minutes [1, 10]: 19%
% Protection, 20-30 minutes [1, 10]: 31%
% Protection, total [1, 10]: 31%
% Protection, 0-10 minutes [1, 11]: 54%
% Protection, 10-20 minutes [1, 11]: 41%
% Protection, 20-30 minutes [1, 11]: 50%
% Protection, total [1, 11]: 48%
Writhing (m ± s.e.) during 10-20 minutes [1, 12]: 16.6 ± 1.5
Writhing (m ± s.e.) during 20-30 minutes [1, 12]: 9.8 ± 1.0
Writhing (m ± s.e.) during 0-10 minutes [1, 13]: 14.8 ± 2.9
Writhing (m ± s.e.), total minutes [1, 13]: 41.2 ± 4.1
Writhing (m ± s.e.) during 10-20 minutes ([1]; oral, dose corresponding to 20 mg/kg meclofenamic acid (Ib 25.4 mg/kg; sodium meclofenamate 22.0 mg/kg)): 12.1 ± 2.3
Writhing (m ± s.e.) during 0-10 minutes [1, 14]: 11.6 ± 2.5
Writhing (m ± s.e.) during 20-30 minutes [1, 14]: 7.2 ± 1.4
Writhing (m ± s.e.), total minutes [1, 14]: 30.9 ± 5.8
analgesic activity compared with reference (in words) ([1]; oral, vs sodium meclofenamate, both doses): had the anti-inflammatory and analgesic properties of the reference compound; also recorded: comparable with that of sodium meclofenamate
activity in the hot plate test (in words) ([2]; mouse): some activity; also recorded: slight analgesic activity after 30 minutes
Percentages of mice protected at 30 minutes [2, 9]: 0%
Percentages of mice protected at 60 minutes [2, 9]: 0%
Percentages of mice protected at 30 minutes [2, 15]: 20%
Percentages of mice protected at 60 minutes [2, 15]: 0%
Leucocytes (m ± s.e.), 24 h [3, 16]: 16.08 ± 6.85 × 10^6
Volume of exudate (m ± s.e.), 24 h [3, 16]: 0.26 ± 0.06 mL
Leucocytes (m ± s.e.), 4 h ([3]; os, Ib 31.75 mg/kg × 2 (*P < 0.05 vs controls), sodium meclofenamate 27.5 mg/kg × 2, 4 h): 1.08 ± 0.19 × 10^6
change of leucocytes (in parentheses), 4 h [3, 17]: -76
change of volume of exudate (in parentheses), 4 h [3, 17]: -25
change of leucocytes (in parentheses), 24 h [3, 18]: -81
change of volume of exudate (in parentheses), 24 h [3, 18]: -71
Volume of exudate (m ± s.e.), 4 h ([3]; os, dose corresponding to 25 mg/kg meclofenamic acid × 2 (Ib 31.75; sodium meclofenamate 27.5 mg/kg), 4 h): 0.24 ± 0.02 mL
activity relative to the reference compound in inhibiting volume of exudate and total content of leucocytes ([3]; rat, oral, equimolar doses (in meclofenamic acid)): about twice as active as the reference compound
PR (rat; oral LD50, Ib and sodium meclofenamate, rat): 1.935 (1.191-3.586)
Slope (rat; oral LD50, probit method): 2.553 ± 0.6302
acute toxicity compared with sodium meclofenamate (in words) (rat; rat, oral LD50): less toxic than sodium meclofenamate, to a statistically significant extent
LD50 at 480 h ([4]; male and female rats, 20 days of observation, probit method, read-out: DL50): 271 mg/kg
LD50 at 480 h ([4]; mg/kg meclofenamic acid, read-out: LD50 as corresponding meclofenamic acid): 213 mg/kg

From patent publication US4879311A, “Derivatives of benzoyloxyacetic acid, and preparation and formulations thereof for therapeutic use” (Inverni della Beffa S.p.A., priority 1987, dated 1989)
